This note sets out measurements from patent publication US4739106A, “3-amino-3-carbamoyloxyalkylacrylic acid intermediates to dihydropyridines” (Banyu Pharmaceutical Co., Ltd., priority 1982, dated 1988).

The term LD50 denotes the dose expected to kill half of the subjects tested.

Series [1] deals with cerebral blood flow and peripheral blood flow. Briefly: Separate pharmacological test: cerebral and peripheral blood flow, i.v. To be noted: 1 to 10 μg/kg intravenously. It is filed as in vivo.
Series [2] concerns isolated hearts of rabbits (coronary vessels). Nature of the series: Coronary vasodilation, Langendorff method, isolated hearts of rabbits. As to conditions: Oryctolagus cuniculus, dosage of a sample required to increase the coronary outflow by 50%, isolated rabbit hearts, read-out: Coronary vasodilation ICD50. Here is the method:
(a) Coronary vasodilation
According to Langendorff method (O. Langendorff; Pflugers arch. ges. phisiol., 61, 291-332 (1895)), the coronary vasodilation effects were tested using isolated hearts of rabbits. The strength of coronary vasodilation was evaluated by ICD50 (g/ml) i.e. the dosage of a sample required to increase the coronary outflow by 50%.

A short description of series [3]: Acute toxicity, i.v., DM strain male mice, up-and-down method. To be noted: mouse, in vivo, iv.
Another series relates to Beagle dogs. Nature of the series: Coronary effects on anesthetized beagle dogs (CF, FAF, BP, HR), i.v. It is filed as in vivo, dog (beagle). As to conditions: for CF % increase: coronary blood flow; for CF % increase / FAF % increase / HR % increase: vs saline control; for FAF % increase: femoral artery blood flow; for HR % increase: heart rate; for BP % decrease: systemic blood pressure, vs control. Here is the method: (c) Coronary effects on dogs
Beagle dogs (13 to 16 kg, .male.) were subjected to thoracotomy under anesthesia with sodium pentobarbital, and a probe was attached to the heart left coronary anterior descending artery of each animal, whereupon the coronary blood flow (CF) was measured by an electromagnetic flowmeter. On the other hand, a probe was attached to the exposed right femoral artery, and the femoral artery blood flow (FAF) was measured by an electromagnetic flowmeter. A canule was inserted to the left femoral artery, and the systemic blood pressure (BP) was bloody measured by a transducer.
The heart rate (HR) was measured by an electrocardiogram.
The sample solution was intravenously injected to the right femoral vein.
The coronary blood flow (CF), the femoral artery blood flow (FAF) and the heart rate (HR) were represented by a % increase upon the injection of each sample as compared with the respective control value upon the injection of a saline.
The systemic blood pressure (BP) was represented by a % decrease as compared with the control.

Structures are written as SMILES. In brackets after ≈: the same amount, converted by molar mass.

On to `CCOC(=O)C1=C(C)NC(COC(N)=O)=C(C(=O)OCC)C1c1cccc([N+](=O)[O-])c1` (stereo not drawn) [(1), 2-Carbamoyloxymethyl-6-methyl-4-(m-nitrophenyl)-3,5-diethoxycarbonyl-1,4-dihydropyridine], for which, in series [1], the “Increase of cerebral blood flow” value was in the range of 40 to 50% and the “Increase of peripheral blood flow” value lay in the range of 40 to 50%.
In the case of `CCOC(=O)C1=C(C)NC(COC(=O)NC)=C(C(=O)OCC)C1c1cccc([N+](=O)[O-])c1` (stereo not drawn) [(2)], the EC50 in series [2] came out at 0.32 µg/mL (≈ 0.715 µM). Further, the LD50 in series [3] was 71 mg/kg.
With `CNC(=O)OCC1=C(C(=O)OC)C(c2cccc([N+](=O)[O-])c2)C(C(=O)OC)=C(C)N1` (stereo not drawn) [(4)], in series [2], the EC50 amounted to 0.36 µg/mL (≈ 0.858 µM). In addition, the LD50 in series [3] amounted to 84 mg/kg.
Consider `CCOC(=O)C1=C(C)NC(COC(N)=O)=C(C(=O)OCC)C1c1ccccc1[N+](=O)[O-]` (stereo not drawn) [(5), 2-Carbamoyloxymethyl-6-methyl-4-(o-nitrophenyl)-3,5-diethoxycarbonyl-1,4-dihydropyridine], for which, in the series with Beagle dogs (1 μg/kg i.v.), the CF % increase is given as 13%, the FAF % increase is recorded as 8%, the HR % increase is given as 0% and the BP % decrease is given as 0%. In the series with Beagle dogs (3 μg/kg i.v.), the CF % increase came out at 38%, the FAF % increase is given as 35%, the HR % increase is 0% and the BP % decrease is 2%. Besides, in the series on Beagle dogs (10 μg/kg i.v.), the CF % increase came to 86%, the FAF % increase amounted to 82%, the HR % increase was -10% and the BP % decrease is reported as 22%.
For the compound `CCCOCCOC(=O)C1=C(C)NC(COC(N)=O)=C(C(=O)OCCOCCC)C1c1cccc([N+](=O)[O-])c1` (stereo not drawn) [(12), 2-Carbamoyloxymethyl-6-methyl-4-(m-nitrophenyl)-3,5-bis[(β-propoxyethoxy)carbonyl]-1,4-dihydropyridine], in series [1], the “Increase of cerebral blood flow” value was in the range of 40 to 50% and the “Increase of peripheral blood flow” value was 40 to 50%.
Consider `CCCOCCOC(=O)C1=C(C)NC(COC(=O)NC)=C(C(=O)OCCOCCC)C1c1cccc([N+](=O)[O-])c1` (stereo not drawn) [(13), 2-N--Methylcarbamoyloxymethyl,-6-methyl-4-(m-nitrophenyl)-3,5-bis[(β-propoxyethoxy)carbonyl]-1,4-dihydropyridine], for which, in series [1], the “Increase of cerebral blood flow” value is reported as 40 to 50% and the “Increase of peripheral blood flow” value is 40 to 50%.
On to `COC(=O)C1=C(COC(N)=O)NC(C)=C(C(=O)OCCN(C)Cc2ccccc2)C1c1cccc([N+](=O)[O-])c1` (stereo not drawn) [(15), 2-Carbamoyloxymethyl-6-methyl-4-(m-nitrophenyl)-3-methoxycarbonyl-5-(β-N--methylbenzylaminoethoxy)carbonyl-1,4-dihydropyridine], for which the LD50 in series [3] stood at 200 mg/kg.
For `COC(=O)C1=C(COC(N)=O)NC(C)=C(C(=O)OCCN2CCOCC2)C1c1cccc([N+](=O)[O-])c1` (stereo not drawn) [(18), 2-Carbamoyloxymethyl-6-methyl-4-(m-nitrophenyl)-3-methoxycarbonyl-5-(β-morpholinoethoxy)carbonyl-1,4-dihydropyridine], the LD50 in series [3] turned out to be 200 mg/kg.
